Results taken from patent US20180305334A1, “COMPOUNDS, COMPOSITIONS AND METHODS OF USE AGAINST STRESS GRANULES” (Aquinnah Pharmaceuticals, Inc., priority 2015, published 2018).

system: TDP-43 aggregation in PC12 cells stably expressing TDP-43^Q331K::eGFP; test: In vitro efficacy assay, TDP-43 aggregation concentration-response; type: cell-based; settings: Rattus norvegicus, PC-12, inhibition of TDP-43 aggregation; PC12 TDP-43^Q331K::eGFP, 1 hour pre-treatment, 15 μM sodium arsenite for 23 hours; 10-point dose response
Experimental: Exemplary compounds of the invention were evaluated for efficacy in inhibiting TDP-43 inclusions using a concentration-response assay. Briefly, PC12 cells stably expressing a GFP-tagged mutant form of TDP-43 (TDP-43^Q331K::eGFP) were pre-treated for 1 hour with exemplary compounds and stressed with 15 μM sodium arsenite for 23 hours to induce TDP-43 aggregation. The inhibitory effect on TDP-43 aggregation was measured using fluorescence microscopy. The ratio of cells with TDP-43 aggregates was calculated based on the total number of cells with detectable GFP expression.

Structure (SMILES)	IC50 [µM]
CC(C)N(CC1CCN(Cc2cccc(Cl)c2)CC1)C(=O)c1cc2ccccc2[nH]1 [compound 278]	4 to 7
CN(CC1CCN(Cc2cccc(F)c2)CC1)C(=O)c1cc2ccccc2[nH]1 [compound 255]	> 10
CCN(CC1CCNCC1)C(=O)c1cc2ccccc2[nH]1 [Compound 250]	< 1.5
CCN(CC1CCCN(S(=O)(=O)c2ccc(OC)cc2)C1)C(=O)c1cc2ccccc2[nH]1 (centres unmarked) [Compound 200]	1.5 to 4
O=C(NCC1CCN(Cc2cccc(Cl)c2)CC1)c1cc2ccccc2[nH]1 [compound 271]	< 1.5
CCN(CC1CCCN(Cc2ccc(Cl)cc2)C1)C(=O)c1cc2c(F)cc(F)cc2[nH]1 (centres unmarked) [Compound 169]	< 1.5
CCN(CC1CCN(CC(C)(C)c2cc3ccccc3o2)CC1)C(=O)c1cc2ccccc2[nH]1 [Compound 405]	4 to 7
CCN(CC1CCCN(C2CCc3ccccc3C2)C1)C(=O)c1cc2ccccc2[nH]1 (centres unmarked) [Compound 208]	4 to 7
COc1cccc(CCN2CCCC(CN(C(=O)c3cc4ccccc4[nH]3)C3CCCCC3)C2)c1 (centres unmarked) [Compound 219]	< 1.5
CCN(CC1CCCNC1)C(=O)c1cc2c(Cl)cc(Cl)cc2[nH]1 (centres unmarked) [compound 416]	> 10
COc1cccc(CCN2CCC(CN(CC(F)(F)F)C(=O)c3cc4ccccc4[nH]3)CC2)c1 [compound 307]	< 1.5
CCN(CC1CCCN(CCc2cccc(F)c2)C1)C(=O)c1cc2ccccc2[nH]1 (centres unmarked) [Compound 140]	< 1.5
CCN(CC1CCCN(C(C)(C)Cc2cccc(OC(F)F)c2)C1)C(=O)c1cc2cc(OC(F)F)ccc2[nH]1 (centres unmarked) [compound 315]	< 1.5
CCN(CC1CCN(C(C)(C)Cc2cc3ccccc3o2)CC1)C(=O)c1cc2ccccc2[nH]1 [Compound 339]	< 1.5
CCN(CC1CCCN(Cc2ccc(Cl)cc2)C1)C(=O)c1cc2cccc(F)c2[nH]1 (centres unmarked) [Compound 157]	> 10
CCN(CC1CCCNC1)C(=O)c1cc2cc(OC(F)(F)F)ccc2[nH]1 (centres unmarked) [compound 426]	> 10
CN(CC1CCN(Cc2cccc(Cl)c2)CC1)C(=O)c1cc2ccccc2[nH]1 [compound 256]	> 10
CCN(CC1CCCN(CCc2cccc(OC)c2)C1)C(=O)c1cn(C)c2ccccc12 (centres unmarked) [Compound 248]	< 1.5

Structure (SMILES)	IC50 [µM]
CCN(CC1CCCNC1)C(=O)c1cc2ccc(C)cc2[nH]1 (centres unmarked) [compound 417]	> 10
CN(CC1CCN(Cc2ccc(Cl)cc2)CC1)C(=O)c1cc2ccccc2[nH]1 [compound 262]	> 10
CCN(CC1CCN(Cc2ccc(F)cc2)CC1)C(=O)c1cc2ccccc2[nH]1 [compound 290]	> 10
CCN(CC1CCCN(Cc2ccccc2Cl)C1)C(=O)c1cc2ccccc2[nH]1 (centres unmarked) [Compound 129]	> 10
CCN(CC1CCN(C2(Cc3cccc(OC)c3)CC2)CC1)C(=O)c1cc2ccccc2[nH]1 [Compound 360]	< 1.5
CCN(CC1CCN(C(C)(C)Cc2ccccc2F)CC1)C(=O)c1cc2ccccc2[nH]1 [Compound 343]	1.5 to 4
CCN(CC1CCCN(Cc2ccc(OC)cc2)C1)C(=O)c1cc2ccc(C)cc2[nH]1 (centres unmarked) [Compound 156]	1.5 to 4
CCN(CC1CCCN(C(C)(C)Cc2cccc(Cl)c2)C1)C(=O)c1cc2ccccc2[nH]1 (centres unmarked) [compound 314]	< 1.5
COc1cccc(CCN2CCCC(N(C)C(=O)c3cc4ccccc4[nH]3)C2)c1 (centres unmarked) [Compound 222]	> 10
CCN(CC1CCCN(Cc2cccc(OC(F)(F)F)c2)C1)C(=O)c1cc2cc(OC(F)(F)F)ccc2[nH]1 (centres unmarked) [Compound 175]	> 10
CCN(CC1CCN(Cc2cccc(OC)c2)CC1)C(=O)c1cc2ccccc2[nH]1 [compound 267]	1.5 to 4
CCN(CC1CCCN(C(C)(C)c2ccc(OC)cc2)C1)C(=O)c1cc2cc(Cl)ccc2[nH]1 (centres unmarked) [Compound 357]	< 1.5
CCN(CC1CCCN(C(=O)Cc2ccc(OC)cc2)C1)C(=O)c1cc2ccccc2[nH]1 (centres unmarked) [Compound 201]	< 1.5
CCN(CC1CCN(C(C)(C)Cc2cccc(F)c2F)CC1)C(=O)c1cc2ccccc2[nH]1 [Compound 342]	> 10
CCN(CC1CCCN(Cc2ccc(Cl)cc2)C1)C(=O)c1cc2ccc(OC)cc2[nH]1 (centres unmarked) [Compound 159]	1.5 to 4
CCN(CC1CCNCC1)C(=O)c1cc2cc(OC(F)(F)F)ccc2[nH]1 [compound 401]	4 to 7
CCN(CC1CCCN(CCc2cccc(OC)c2)C1)C(=O)c1c[nH]c2ccccc12 (centres unmarked) [Compound 232]	< 1.5

The next lines start with the values.

IC50 [µM]	Structure (SMILES)
> 10	CCN(CC1CCN(Cc2ccc(Cl)cc2)CC1)C(=O)c1cc2ccccc2[nH]1 [compound 289]
< 1.5	CCN(CC1CCCN(C(C)(C)c2ccc(OC)cc2)C1)C(=O)c1cc2ccccc2[nH]1 (centres unmarked) [Compound 355]
> 10	CCN(CC1CCCNC1)C(=O)c1cc2cccc(F)c2[nH]1 (centres unmarked) [compound 418]
< 1.5	O=C(c1cc2ccccc2[nH]1)N(CC1CCN(CCc2ccccc2)CC1)CC(F)(F)F [compound 305]
< 1.5	COc1cccc(CCN2CCCC(CN(C(=O)c3cc4ccccc4[nH]3)c3ccccc3)C2)c1 (centres unmarked) [Compound 144]
> 10	CCN(CC1CCCN(CCc2cccc(OC)c2)C1)C(=O)c1nc2ccccc2n1C (centres unmarked) [Compound 240]
1.5 to 4	CCN(CC1CCCN(CCc2ccc3c(c2)OCO3)C1)C(=O)c1cc2ccccc2[nH]1 (centres unmarked) [Compound 146]
> 10	CCN(CC1CCCN(CCc2cccc(OC)c2)C1)C(=O)c1nc2ccccc2o1 (centres unmarked) [Compound 241]
1.5 to 4	CCN(CC1CCCN(C(C)(C)Cc2cccc(OC)c2)C1)C(=O)c1cc2ccccc2[nH]1 (centres unmarked) [compound 312]
> 10	CCN(CC1CCCN(CCc2ccc(F)cc2)C1)C(=O)c1cc2ccccc2[nH]1 (centres unmarked) [Compound 126]
4 to 7	COc1ccccc1CN1CCC(CN(C)C(=O)c2cc3ccccc3[nH]2)CC1 [compound 260]
4 to 7	CCN(CC1CCCN(CCc2ccccc2OC)C1)C(=O)c1cc2ccccc2[nH]1 (centres unmarked) [Compound 124]
4 to 7	CCN(CC1CCCN(CCc2cccc(OC)c2)C1)C(=O)c1ccco1 (centres unmarked) [Compound 247]
1.5 to 4	CCN(CC1CCCN(Cc2ccc(Cl)cc2)C1)C(=O)c1cc2ccc(Cl)cc2[nH]1 (centres unmarked) [Compound 164]
7 to 9.9	CCN(CC1CCN(Cc2cc3ccccc3o2)CC1)C(=O)c1cc2ccccc2[nH]1 [Compound 327]
< 1.5	CCN(CC1CCN(Cc2ccc(OC)cc2)CC1)C(=O)c1cc2ccccc2[nH]1 [compound 288]
> 10	CCN(CC1CCCN(Cc2ccc(C(=O)O)cc2)C1)C(=O)c1cc2ccccc2[nH]1 (centres unmarked) [Compound 213]
1.5 to 4	CCN(CC1CCCN(CCc2cccc(OC)c2)C1)C(=O)c1cc2ccccc2s1 (centres unmarked) [Compound 235]
> 10	CCN(CC1CCCNC1)C(=O)c1cc2c(OC)cccc2[nH]1 (centres unmarked) [compound 422]
7 to 9.9	CCN(CC1CCCN(CCc2cc3ccccc3o2)C1)C(=O)c1cc2ccccc2[nH]1 (centres unmarked) [Compound 181]

IC50 [µM]	Structure (SMILES)
< 1.5	CCN(CC1CCCN(CCc2ccc(Cl)cc2)C1)C(=O)c1cc2ccccc2[nH]1 (centres unmarked) [Compound 128]
> 10	CCN(CC1CCCN(C2CCc3ccc(OC)cc3C2)C1)C(=O)c1cc2ccccc2[nH]1 (centres unmarked) [Compound 210]
> 10	CCN(CC1CCCNC1)C(=O)c1cc2ccccc2[nH]1 (centres unmarked) [Compound 413]
1.5 to 4	COc1cccc(CC(=O)N2CCC(CNC(=O)c3cc4ccccc4[nH]3)CC2)c1 [Compound 322]
< 1.5	CCN(CC1CCCN(CCc2cccc(OC)c2)C1)C(=O)c1n[nH]c2ccccc12 (centres unmarked) [Compound 249]
1.5 to 4	CCN(CC1CCCN(CCc2cccc(OC)c2)C1)C(=O)c1ccc2ccccc2c1 (centres unmarked) [Compound 237]
1.5 to 4	CCN(CC1CCN(Cc2ccccc2Cl)CC1)C(=O)c1cc2ccccc2[nH]1 [compound 286]
> 10	O=C(NCC1CCN(Cc2ccc(F)cc2)CC1)c1cc2ccccc2[nH]1 [compound 294]
4 to 7	CCN(CC1CCCN(C2Cc3ccccc3C2)C1)C(=O)c1cc2ccccc2[nH]1 (centres unmarked) [Compound 209]
< 1.5	CC(C)(Cc1ccccc1)N1CCCC(CN(CC(F)(F)F)C(=O)c2cc3ccccc3[nH]2)C1 (centres unmarked) [Compound 351]
1.5 to 4	CC(C)N(CC1CCN(Cc2ccccc2)CC1)C(=O)c1cc2ccccc2[nH]1 [compound 285]
4 to 7	CCN(CC1CCN(C2CCc3ccccc32)CC1)C(=O)c1cc2ccccc2[nH]1 (centres unmarked) [Compound 328]
< 1.5	CCN(CC1CCCN(CC(C)(C)c2cccc(OC)c2)C1)C(=O)c1cc2cc(OC)ccc2[nH]1 (centres unmarked) [Compound 406]
1.5 to 4	CCN(CC1CCCN(Cc2cccc(Cl)c2)C1)C(=O)c1cc2ccccc2[nH]1 (centres unmarked) [Compound 134]
1.5 to 4	CCN(CC1CCCN(Cc2ccc(Cl)cc2)C1)C(=O)c1cc2c(Cl)cc(Cl)cc2[nH]1 (centres unmarked) [Compound 153]
< 1.5	CCN(CC1CCCN(Cc2ccc(Cl)cc2)C1)C(=O)c1cc2cc(F)ccc2[nH]1 (centres unmarked) [Compound 150]
< 1.5	CCN(CC1CCCN(Cc2ccc(OC)cc2)C1)C(=O)c1cc2cc(Cl)ccc2[nH]1 (centres unmarked) [Compound 161]
1.5 to 4	CCN(CC1CCCN(CCc2cccc(OC)c2)C1)C(=O)c1ccc[nH]1 (centres unmarked) [Compound 231]
> 10	CCN(CC1CCN(Cc2ccc(OC(F)(F)F)cc2)CC1)C(=O)c1cc2cc(OC(F)(F)F)ccc2[nH]1 [compound 309]

same assay, conditions: inhibition of TDP-43 aggregation; PC12 TDP-43^Q331K::eGFP, 1 hour pre-treatment, 15 μM sodium arsenite for 23 hours; 10-point dose response

IC50 [µM]	Structure (SMILES)
< 1.5	CCN(CC1CCCN(C(C)(C)c2cc3ccccc3o2)C1)C(=O)c1cc2ccccc2[nH]1 (centres unmarked) [Compound 338]
< 1.5	CCN(CC1CCCN(C(C)(C)Cc2cccc(Cl)c2)C1)C(=O)c1cc2ccccc2[nH]1 (centres unmarked) [Compound 335]
> 10	CCN(CC1CCCN(C(C)(C)Cc2cccc(OC)c2)C1)C(=O)c1cc2cc(OC)ccc2[nH]1 (centres unmarked) [compound 313]
